Measured values as given in ChEMBL document CHEMBL3217562, “N-Substituted salicylamides as selective malaria parasite dihydroorotate dehydrogenase inhibitors” (Medchemcomm, 2011).

How the values were obtained:
[1] = target: T1, Dihydroorotate dehydrogenase (Plasmodium falciparum, UniProt Q54A96); test: Inhibition of N-terminal truncated Plasmodium falciparum recombinant DHODH assessed as ubiquinone reduction to 2,6-dichloroindophenol by spectrophotometric analysis
T1 sequence (Q54A96 whole entry): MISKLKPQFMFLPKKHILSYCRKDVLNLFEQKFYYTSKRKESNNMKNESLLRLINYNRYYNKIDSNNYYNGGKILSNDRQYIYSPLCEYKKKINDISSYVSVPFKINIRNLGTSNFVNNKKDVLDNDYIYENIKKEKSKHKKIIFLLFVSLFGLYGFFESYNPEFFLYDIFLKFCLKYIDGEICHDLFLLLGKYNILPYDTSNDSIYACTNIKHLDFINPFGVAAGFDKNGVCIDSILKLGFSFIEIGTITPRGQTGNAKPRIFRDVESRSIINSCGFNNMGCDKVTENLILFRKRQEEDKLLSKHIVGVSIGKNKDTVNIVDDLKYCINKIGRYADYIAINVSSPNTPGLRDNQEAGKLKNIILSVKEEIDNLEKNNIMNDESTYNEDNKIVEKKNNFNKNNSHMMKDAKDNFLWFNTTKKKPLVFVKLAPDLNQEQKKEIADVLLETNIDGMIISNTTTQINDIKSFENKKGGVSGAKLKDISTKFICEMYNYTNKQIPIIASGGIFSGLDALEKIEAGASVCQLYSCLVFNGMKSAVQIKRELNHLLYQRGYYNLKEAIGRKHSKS

[2] = target: T2, Dihydroorotate dehydrogenase (quinone), mitochondrial (Homo sapiens, UniProt Q02127); test: Inhibition of N-terminal truncated human recombinant DHODH assessed as ubiquinone reduction to 2,6-dichloroindophenol by spectrophotometric analysis
T2 sequence (Q02127 whole entry, the tested form may be a part): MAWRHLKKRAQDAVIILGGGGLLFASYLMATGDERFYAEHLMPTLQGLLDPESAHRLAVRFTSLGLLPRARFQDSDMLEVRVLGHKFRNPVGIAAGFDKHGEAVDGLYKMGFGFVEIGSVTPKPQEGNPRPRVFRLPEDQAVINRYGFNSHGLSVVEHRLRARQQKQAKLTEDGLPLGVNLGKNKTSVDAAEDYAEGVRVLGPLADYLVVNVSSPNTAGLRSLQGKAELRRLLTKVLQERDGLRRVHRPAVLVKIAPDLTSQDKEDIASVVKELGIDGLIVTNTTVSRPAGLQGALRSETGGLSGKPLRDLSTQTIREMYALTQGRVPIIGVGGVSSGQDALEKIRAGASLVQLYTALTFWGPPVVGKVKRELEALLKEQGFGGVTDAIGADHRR

[3] = Selectivity ratio of IC50 for N-terminal truncated human recombinant DHODH to IC50 for N-terminal truncated Plasmodium falciparum recombinant DHODH
Plasmodium falciparum = test: Antiplasmodial activity against Plasmodium falciparum 3D7 after 48 hrs by [3H]-hypoxanthine incorporation assay; assay type: functional, organism-based
[4] = target: T2, Dihydroorotate dehydrogenase (quinone), mitochondrial; test: Inhibition of N-terminal truncated human recombinant DHODH assessed as ubiquinone reduction to 2,6-dichloroindophenol at 10 uM by spectrophotometric analysis relative to control
[5] = target: T3, Dihydroorotate dehydrogenase (Plasmodium falciparum) (UniProt Q54A96); test: Inhibition of N-terminal truncated Plasmodium falciparum recombinant DHODH assessed as ubiquinone reduction to 2,6-dichloroindophenol at 10 uM by spectrophotometric analysis relative to control
T3 sequence (whole entry): T1 sequence (Q54A96 whole entry)

[6] = target: T3, Dihydroorotate dehydrogenase (Plasmodium falciparum); test: Inhibition of N-terminal truncated Plasmodium falciparum recombinant DHODH assessed as ubiquinone reduction to 2,6-dichloroindophenol at 100 uM by spectrophotometric analysis relative to control

Structure (SMILES): O=Cc1ccc(C(=O)NCC(c2ccccc2)c2ccccc2)c(O)c1
- IC50 [1]: 16.5 µM
- IC50 [2]: > 200 µM

Structure (SMILES): O=C(NCC(c1ccccc1)c1ccccc1)c1cc(Cl)cc(Cl)c1O
- IC50 [1]: 7 µM
- IC50 [2]: > 200 µM
- Ratio IC50 [3]: > 20
- EC50 (Plasmodium falciparum): 170 µM

Structure (SMILES): COc1ccc(C(=O)NCCc2ccccc2)c(O)c1
- inhibition [4]: 5%
- inhibition [5]: 9%

Structure (SMILES): CN(CCc1ccccc1)C(=O)c1ccccc1O
- inhibition [4]: 3%
- inhibition [5]: 3%

Structure (SMILES): O=C(NCC(c1ccccc1)c1ccccc1)c1cccc(CO)c1O
- IC50 [1]: > 100 µM
- IC50 [2]: > 200 µM

Structure (SMILES): O=C(NCCc1ccccc1)c1cc([N+](=O)[O-])ccc1O
- inhibition [4]: 26%
- inhibition [5]: 5%

Structure (SMILES): CC(CNC(=O)c1ccccc1O)c1ccccc1 (racemic)
- inhibition [4]: 4%
- inhibition [5]: 20%

Structure (SMILES): O=C(NCCc1ccccc1)c1ccc(Cl)cc1O
- inhibition [4]: 8%
- inhibition [5]: 16%

Structure (SMILES): O=C(NCC(c1ccccc1)c1ccccc1)c1ccc(F)c(F)c1O
- IC50 [1]: 9.9 µM
- IC50 [2]: 130 µM
- Ratio IC50 [3]: 18
- EC50 (Plasmodium falciparum): 100 µM

Structure (SMILES): COc1cccc(O)c1C(=O)NCC(c1ccccc1)c1ccccc1
- IC50 [1]: > 125 µM

Structure (SMILES): O=C(NCC(c1ccccc1)c1ccccc1)c1cccc(F)c1O
- IC50 [1]: 26.1 µM
- IC50 [2]: > 200 µM

Structure (SMILES): COc1ccc(C(=O)NCC(c2ccccc2)c2ccccc2)c(O)c1
- IC50 [1]: 14 µM
- IC50 [2]: > 200 µM

Structure (SMILES): O=C(NCCc1ccccc1)c1c(O)cccc1O
- inhibition [4]: 15%
- inhibition [5]: 17%

Structure (SMILES): O=C(NCCCc1ccccc1)c1ccccc1O
- inhibition [4]: 7%
- inhibition [5]: 39%

Structure (SMILES): O=C(NCC(c1ccccc1)c1ccccc1)c1ccc(Cl)cc1O
- IC50 [1]: 10.3 µM
- IC50 [2]: > 200 µM

Structure (SMILES): O=C(NCC(c1ccccc1)c1ccccc1)c1ccc(CO)cc1O
- IC50 [1]: 46.2 µM
- IC50 [2]: > 200 µM

Structure (SMILES): O=C(NCC(c1ccccc1)c1ccccc1)c1cccc(Cl)c1O
- IC50 [1]: 44.1 µM
- IC50 [2]: > 200 µM

Structure (SMILES): O=C(NCCc1ccccc1)c1cccc(Cl)c1O
- inhibition [4]: 8%
- inhibition [5]: 10%

Structure (SMILES): O=C(NCc1ccccc1)c1ccccc1O
- inhibition [4]: 4%
- inhibition [5]: 16%

Structure (SMILES): O=C(NCCC(c1ccccc1)c1ccccc1)c1ccccc1O
- inhibition [4]: 21%
- inhibition [5]: 22%

Structure (SMILES): O=C(NCC(c1ccccc1)c1ccccc1)c1c(O)cccc1F
- IC50 [1]: > 125 µM

Structure (SMILES): COc1ccc(O)c(C(=O)NCC(c2ccccc2)c2ccccc2)c1
- IC50 [1]: 18.1 µM
- IC50 [2]: > 200 µM

Structure (SMILES): O=C(NCC(c1ccccc1)c1ccccc1)c1cc(Br)ccc1O
- IC50 [1]: 10.8 µM
- IC50 [2]: > 200 µM

Structure (SMILES): O=C(NCCc1ccccc1)c1cc(Cl)ccc1O
- inhibition [4]: 6%
- inhibition [5]: 23%

Structure (SMILES): COc1cccc(C(=O)NCC(c2ccccc2)c2ccccc2)c1O
- IC50 [1]: > 500 µM
- IC50 [2]: > 200 µM

Structure (SMILES): O=C(NCC(c1ccccc1)c1ccccc1)c1cc(Cl)ccc1O
- IC50 [1]: 9.1 µM
- IC50 [2]: > 200 µM
- Ratio IC50 [3]: 18
- EC50 (Plasmodium falciparum): 23 µM

Structure (SMILES): O=C(NCC(c1ccccc1)c1ccccc1)c1cc(CO)ccc1O
- IC50 [1]: 8 µM
- IC50 [2]: > 200 µM
- Ratio IC50 [3]: 18
- EC50 (Plasmodium falciparum): 53 µM

Structure (SMILES): Cc1ccc(O)c(C(=O)NCCc2ccccc2)c1
- inhibition [4]: 4%
- inhibition [5]: 16%

Structure (SMILES): Cc1ccc(O)c(C(=O)NCC(c2ccccc2)c2ccccc2)c1
- IC50 [1]: 14.4 µM
- IC50 [2]: > 200 µM

Structure (SMILES): COc1cccc(C(=O)NCCc2ccccc2)c1O
- inhibition [4]: 8%
- inhibition [5]: 7%

Structure (SMILES): COc1ccc(O)c(C(=O)NCCc2ccccc2)c1
- inhibition [4]: 8%
- inhibition [5]: 8%

Structure (SMILES): O=C(NCCc1ccccc1)c1ccccc1O
- inhibition [6]: 53%
- inhibition [4]: 6%
- inhibition [5]: 21%

Structure (SMILES): O=C(NC(c1ccccc1)c1ccccc1)c1ccccc1O
- inhibition [4]: 6%
- inhibition [5]: 0%

Structure (SMILES): O=C(NCC(c1ccccc1)c1ccccc1)c1ccccc1O
- IC50 [1]: 21.2 µM
- IC50 [2]: > 200 µM
- inhibition [4]: 4%
- inhibition [5]: 38%
